In patent US7132453B2, “Method of using prostacyclin to treat respiratory syncytial virus infections” (Vanderbilt University, priority 2002, dated 2006):
Entries after “also recorded” stand apart in the source; their conditions may differ. Like-named read-outs stand apart in the source and are kept apart here.

What was measured:
[1] = cited from earlier work
[2] = in vivo; cited from earlier work
RSV strain A = experiment: UT-15 by subcutaneous micro-infusion pump in RSV-infected BALB/c mice (mortality, body weight); format: in vivo; conditions: for survival percentage: FIG. 7
From the text: The genetically altered mice and control mice were anesthetized with ketamine and xylazine, as described in Peebles, et al., 2001, J. Med. Virol. 63:178–88, which is incorporated herein by reference. The mice were intranasally infected with 10^7 pfu of RSV strain A. American Type Culture Collection, Manassas, Va.
In order to insert a micro-infusion pump into a mouse, the skin of the back, slightly posterior to the scapulae will be shaved and washed with ethanol. Subcutaneous implantation is technically the easiest and least invasive procedure. The usual site for subcutaneous implantation of Azlet pumps in mice is on the back, slightly posterior to the scapulae. Pumps are commercially available at: Alzet Osmotic Pumps, Durect Corporation, P.O. Box 530, Cupertino, Calif. 95015-0530. Absorption of the compound placed in the pump by local capillaries results in systemic administration. For subcutaneous pump implantation, the following steps are performed:
A micro-infusion pump system was inserted into a mouse as previously described in Example 8. After the micro-infusion pump was in place, UT-15 was administered subcutaneously for two weeks starting on the day prior to infection. The BALB/c mice received either different concentrations of UT-15 or water only, as indicated below. BALB/c mice were infected with RSV strain A as described in Example 1. There were 8–10 mice per group. The weight of each mouse was monitored on a daily basis. The mice were put on a scale to measure their weight.
Mice having received micro-infusion pumps received infusion of either water of some concentration of UT-15 for a period of 2 weeks after starting the day prior to RSV infection. […] Also shown are the percentage of body weight for each of the animals on each given day for the other animals either receiving no UT-15 or other concentrations of UT-15.

vaccinia virus = conditions: BALB/c mice; cited from earlier work
RSV = experiment: Indomethacin in drinking water in RSV-infected BALB/c mice (weight loss curve); format: in vivo
From the text: Genetically altered mice having the BALB/c background were obtained from Charles Rivers Laboratories, 251 Ballardvale Street,. Wilmington, Mass. 01887-1000. Modification to the level of PGI2 was accomplished by introducing indomethacin to the BALB/c mice. Indomethacin is a drug that is used to treat arthritis and other rheumatologic conditions and inhibits the activity of both COX-1 and COX-2 such that the formation of prostanoids, specifically PGI2, are not produced. Indomethacin is given to the mice in their drinking water in order to block the cyclooxygenase enzymes in order to determine the effect of the cyclooxygenase pathway on the immune response to RSV infection. Indomethacin is commercially available from Sigma, Inc. St. Louis, Mo.
As best seen in FIG. 4, mice treated with indomethacin have a much difference weight loss curve. Within the experiment, BALB/c mice were provided water having indomethacin, 30 micrograms/ml.
Female BALB/c mice that are 8–10 weeks of age and that weigh approximately 20 grams were used to determine the amount of weight loss that results from an RSV infection. The BALB/c mice were infected with RSV strain A as described in Example 1. Subsequent to infection, the mice received water in their drinking bottles to drink during the course of an infection. On day 5, the mice started to lose weight and the peak of illness as measured by maximal weight loss occurred on day 9. […] These mice then recovered and were fully back to baseline by day 19 after infection. FIG. 3 is an example of a typical body weight curve that occurs with RSV induced illness. On the Y-axis is the body weight as a percentage of the pre-infection weight. This curve is very reproducible although factors such as the strain of the mouse and the viral load administered can alter the severity and duration of illness.

[3] = indomethacin 30 micrograms/ml in drinking water, FIG. 4

Question: Which side effects ([1]; in vivo, iv) does the source give for `CCCCC[C@H](O)/C=C/[C@@H]1[C@H]2C/C(=C/CCCC(=O)O)O[C@H]2C[C@H]1O` [Epoprostenol] here?
Answer: The side effects was “flushing, headache, chest pain, sweating, flu-like symptoms, nausea, vomiting, and systemic hypotension”.

Question: Which “share of oral iloprost reaching the systemic circulation” value [2] does the source give for `CC#CCC(C)[C@H](O)/C=C/[C@@H]1[C@H]2C/C(=C/CCCC(=O)O)C[C@H]2C[C@H]1O` (stereo partly drawn) [Iloprost] here?
Answer: The value was “less than 20%”.

Question: And the “safety of administration to patients” value ([1]; iloprost: long-term, pulmonary hypertension patients, UT-15: patients treated for another disease)?
Answer: The value was “safe”.

Question: For `CCCCC[C@H](O)CC[C@@H]1[C@H]2Cc3cccc(OCC(=O)O)c3C[C@H]2C[C@H]1O` [UT-15], which “safety of administration to patients” value ([1]; in vivo) is on record?
Answer: The value was “safely used”.

Question: What about the “protection against RSV-induced mortality (percent survival)” value (RSV strain A; FIG. 7 legend and summary text, 2.0 and 20 ng/kg/min vs none) of the same molecule?
Answer: The value was “protects against RSV-induced mortality; also recorded: increase percentage of survival”.

Question: What about the “protection against RSV-induced illness (percent of body weight)” value (RSV strain A; FIG. 8 legend, 20, 30, 40 ng/kg/min vs none) of the same molecule?
Answer: The value was “protects against RSV-induced illness”.

Question: And the “recovery period of the surviving mice vs mice without UT-15” value (RSV strain A; UT-15 2.0 ng/kg/min)?
Answer: Its value is “the recovery period was quicker”.

Question: And the survival percentage (RSV strain A; UT-15 2.0 ng/kg/min subcutaneous for two weeks from the day prior to infection)?
Answer: Its survival percentage is “next best survival percentage”.

Question: What about the survival percentage (RSV strain A; UT-15 20 ng/kg/min subcutaneous for two weeks from the day prior to infection) of the same molecule?
Answer: The survival percentage was “best survival percentage”.

Question: And the “recovery period for body weight” value (RSV strain A; UT-15 20 ng/kg/min, compared with 0, 30 and 40 ng/kg/min, FIG. 8)?
Answer: Its value is “quickest recovery period for body weight”.

Question: Which “mortality from vaccinia virus infection vs non-treated mice” value (vaccinia virus) does the source give for `CC(=O)Oc1ccccc1C(=O)O` [aspirin] here?
Answer: The value was “marked increase in mortality”.

Question: For `COc1ccc2c(c1)c(CC(=O)O)c(C)n2C(=O)c1ccc(Cl)cc1` [indomethacin], which “effect on RSV-induced illness” value (RSV; FIG. 4 legend) is on record?
Answer: The value was “exacerbates and delays recover from RSV-induced illness”.

Question: What about the “day of peak illness (weight loss)” value (RSV; [3]) of the same molecule?
Answer: The value was 11 days.

Question: And the “recovery of body weight after RSV infection” value (RSV; [3])?
Answer: The value was “did not recover their weight”.

Question: And the “mortality from vaccinia virus infection vs non-treated mice” value (vaccinia virus)?
Answer: Its value is “marked increase in mortality”.
